Assay results published in patent publication US20210379147A1, “METHOD AND SYSTEM FOR TREATING CANCER UTILIZING TINAGL1” (The Trustees of Princeton University, priority 2018, published 2021).

Tests used:
LM2 cells = test: LM2 orthotopic tumors, single or combined agent treatment; type: in vivo, NSG female mice; details: for spontaneous lung metastasis: LM2 tumors, ex vivo BLI at endpoint
Protocol: FIG. 17A is an image of WB analyses where NSG female mice were injected with 10^4 LM2 cells by MFP injection, and intravenously treated with the indicated reagents twice per week when tumors reached to 2 mm in dimeter, then after 5 weeks of the treatments, the primary tumors of each group were collected and activation of EGFR and FAK in primary tumor of each group were tested by WB.
FIG. 17B is a graph illustrating tumor volumes of each treatment group from FIG. 17A.
FIG. 17C is a graph, quantifying ex vivo BLI results where lungs in mice from FIG. 17A were collected and spontaneous metastasis was examined at the endpoint.
Two molecular targeting reagents, ATN-161 (ATN) and Erlotinib (Erlo) were employed. ATN is an integrin α5β1 antagonist that inhibits the integrin signaling pathway and slows tumor progression. Erlotinib is a well-established small molecular inhibitor of EGFR and is clinically approved for cancer treatment. Mice orthotopically implanted with LM2 cells were split into 6 groups after the tumors reached 2 mm in diameter and subjected to various single or combined agent treatments twice per week [(1) PBS; (2) ATN 30 μg/mouse; (3) Erlo 100 mg/kg; (4) r-Tinagl1 30 μg/mouse; (5) ATN and Erlo; and (6) ATN, Erlo, and r-Tinagl1]. Referring to FIG. 17A, the inhibition of integrin/FAK and EGFR upon each treatment was validated by western blotting and TIC staining.
(§1) For xenograft studies, 8-weeks immunocompromised NOD Scid Gamma (NSG) or immunocompetent FVB females were used. Cells were suspended in 10 μl of PBS for mammary gland injection (MFP), or were suspended in 100 μl of PBS for intravenous injection. For human patient-derived xenograft (PDX, HCL001, kindly provided by Dr. Alana Welm) study, we followed the standard protocol for PDX transplantation, maintenance and digestion of the tumors (DeRose et al., 2011). 2×10^4 cells were suspended in 10 μl of PBS and subjected to MFP injection. For recombinant Tinagl1 (r-Tinagl1), ATN-161, Erlotinib treatments, the mice were injected with 30 μg/mouse, 30 μg/mouse, and 100 mg/kg respectively twice per week via tail-vein. Primary tumors were quantified once per week via caliper measurement. All cell lines used for lung metastasis experiments were stably labeled with a firefly luciferase expressing vector and were monitored by weekly bioluminescent imaging (BLI). At protocol-defined endpoints, lungs were dissected and fixed in bouin's solution and the metastatic lesions were counted.

[1] = tested on: primary tumors and lung metastases; test: IHC staining of tumor samples from treatment groups (Ki67, Casp3, CD31, α-SMA); type: in vivo, NSG female mice; details: for tumor cell proliferation (Ki67 staining): primary tumor and lung metastatic nodules
Protocol: FIGS. 17F-17I are graphs quantifying positives cells per field where primary tumors were collected from indicated treatment groups from FIG. 17D and then subjected to IHC staining with indicated antibodies, including % Ki67^+ (17F), % Casp3^+ (17G), % CD31^+ (17H), and % α-SMA^+ (17I).
TIC staining was performed as previously described (Wan et al., 2014). Briefly, Paraffin-embedded primary tumor or lung samples were sliced into 4 μm thickness. The slides were baked overnight at 60° C. Next, the tissue slides were washed with PBS after deparaffinization and hydration and then boiled in citrate buffer at 100° C. for 40 min. After treated with 3% H2O2 for 30 min to block endogenous peroxidase, slides were incubated at 4° C. overnight with Ki67 (Leica Biosystem, Ki67-MM1-L-CE-S), cleaved caspase-3 (Cell signaling, 9661S), p-EGFR (Cell signaling, 3777), p-FAK (Cell signaling, 8556), CD31 (Cell signaling, 77699), -SMA (Sigma, A5228), or Tinagl1 (Sigma, HPA048695) antibodies. Following washes with PBS, slides were then incubated with HRP-conjugated goat anti-rabbit or mouse secondary antibody (Genetech) for 30 min at room temperature. Sections were stained by DAB and then counterstained with Gill hematoxylin according to manufacturer's instructions.

SUM159-M1a = SUM159-M1a orthotopic tumors, single or combined agent treatment; type: in vivo, NSG female mice; details: SUM159-M1a model
Protocol: FIG. 17D is an image of WB analyses where NSG female mice were injected with 10^4 M1a cells by MFP injection, and treated with the indicated reagents twice per week when tumors reached to 2 mm in diameter, then after 5 weeks of the treatments, the primary tumors of each group were collected and activation of EGFR and FAK in primary tumor of each group was tested by WB.
FIG. 17E is a graph illustrating tumor volumes of each treatment group from FIG. 17D.
as §1, with “For recombinant Tinagl1 (r-Tinagl1), ATN-161, Erlotinib treatments, the mice were injected with 30 μg/mouse, 30 μg/mouse, and 100 mg/kg respectively twice per week via tail-vein.” left out

human EGFR-GFP = target: T1, human EGFR-GFP (human, UniProt P00533 25-1210); test: competition co-IP in lysate of HEK293T cells co-expressing Tinagl1-HA and GFP-EGFR; competitor of Tinagl1-HA
T1 construct: Printed both as GFP-EGFR and EGFR-GFP; the order of the two pieces is not certain; Expressed in HEK293T or LM2 cells, assayed in lysate; also called GFP-EGFR; not shown: GFP

[2] = target: T2, mutant integrin β1 subunit (β1-M) with deletion of aa 130-240 (human, UniProt P05556 21-798); test: IP and WB from HEK293T cells overexpressing β1-M and Tinagl1-HA
T2 construct: Overexpressed in HEK293T cells, assayed in lysate; said to be still localized to the cell surface; also called β1-mutant; integrin subunit β1-Δ130-240aa
T2 sequence (P05556 other isoform, or with tags, fused parts or gaps mutant): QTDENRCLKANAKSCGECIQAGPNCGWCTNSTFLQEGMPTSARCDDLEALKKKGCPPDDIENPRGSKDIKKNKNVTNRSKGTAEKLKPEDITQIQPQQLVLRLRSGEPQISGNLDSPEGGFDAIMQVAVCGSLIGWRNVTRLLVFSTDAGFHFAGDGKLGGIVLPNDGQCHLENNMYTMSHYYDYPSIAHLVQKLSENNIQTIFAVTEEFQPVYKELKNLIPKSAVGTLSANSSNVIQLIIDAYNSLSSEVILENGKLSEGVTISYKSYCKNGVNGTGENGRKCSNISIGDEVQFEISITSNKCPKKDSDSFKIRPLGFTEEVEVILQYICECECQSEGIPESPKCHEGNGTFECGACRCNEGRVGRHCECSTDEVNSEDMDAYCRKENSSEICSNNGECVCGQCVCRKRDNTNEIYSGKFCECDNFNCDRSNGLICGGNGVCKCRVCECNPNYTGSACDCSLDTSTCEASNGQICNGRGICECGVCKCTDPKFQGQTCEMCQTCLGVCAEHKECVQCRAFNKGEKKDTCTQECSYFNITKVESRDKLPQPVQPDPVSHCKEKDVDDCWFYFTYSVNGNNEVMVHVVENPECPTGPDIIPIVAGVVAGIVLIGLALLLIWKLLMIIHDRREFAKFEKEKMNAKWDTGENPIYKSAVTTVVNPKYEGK
Protocol: Immunoprecipitation (IP) and western blotting (WB) analysis. For an IP experiment, cells were collected in 1.5 ml EP tube when they reached to 100% confluency in 10 or 15 cm dish as indicated. […] Meanwhile, culture media was 100× concentrated and mixed with the cell lysates. The samples were centrifuged, 100 μl of the supernatant was transferred to a new tube as input, and the rest was incubated with 2 μg of IgG, anti-HA, anti-Myc, anti-Integrin subunit β1, anti-Integrin subunit α5 or anti-EGFR (as indicated in each experiment) overnight at 4° C. (recombinant proteins may be added at this step as indicated in each experiment). […] The beads were then washed for 5 times with IP lysis buffer. After final spin, the beads were boiled with 50 μl of 1×SDS Laemmli buffer for 5 min, and the samples were subjected to western blotting (WB). […] 100 μl of combined solution was transferred to a new tube and served as input. The rest was split into two tubes and IP with 2 μg of IgG or His antibody respectively. The IP samples were washed with PBS and analyzed with WB.

ATN-161
spontaneous lung metastasis (LM2 cells): no reduction was observed
tumor cell proliferation (Ki67 staining) [1]: suppressed proliferation in primary tumor but not lung metastatic nodules

C#Cc1cccc(Nc2ncnc3cc(OCCOC)c(OCCOC)cc23)c1 [Erlotinib]
primary tumor growth (LM2 cells; LM2, twice per week, ATN 30 μg/mouse, Erlo 100 mg/kg, r-Tinagl1 30 μg/mouse): trended toward reducing primary tumor growth but did not reach statistical significance
spontaneous lung metastasis (LM2 cells): reduced spontaneous lung metastasis
lung metastasis (SUM159-M1a): reduced lung metastasis
CD31+ endothelium ([1]; primary and lung metastasis): significantly reduced
tumor cell proliferation (Ki67 staining) [1]: inhibited tumor cell proliferation in lung metastatic nodules but not primary sites

B1: full length recombinant human Tinagl1 with 6xHis tag at the C-terminus (r-Tinagl1) (other)
chain: AQQGRGRRELAPGLHLRGIRDAGGRYCQEQDLCCRGRADDCALPYLGAICYCDLFCNRTVSDCCPDFWDFCLGVPPPFPPIQGCMHGGRIYPVLGTYWDNCNRCTCQENRQWQCDQEPCLVDPDMIKAINQGNYGWQAGNHSAFWGMTLDEGIRYRLGTIRPSSSVMNMHEIYTVLNPGEVLPTAFEASEKWPNLIHEPLDQGNCAGSWAFSTAAVASDRVSIHSLGHMTPVLSPQNLLSCDTHQQQGCRGGRLDGAWWFLRRRGVVSDHCYPFSGRERDEAGPAPPCMMHSRAMGRGKRQATAHCPNSYVNNNDIYQVTPVYRLGSNDKEIMKELMENGPVQALMEVHEDFFLYKGGIYSHTPVSLGRPERYRRHGTHSVKITGWGEETLPDGRTLKYWTAANSWGPAWGERGHFRIVRGVNECDIESFVLGVWGRVGMEDMGHHVDHHHHHH
notes: also called r-Tiangl1; recombinant Tinagl1 protein
binding result (human EGFR-GFP): binds

B2: C-terminal HA tagged Tinagl1 (Tinagl1-HA) (other)
chain: AQQGRGRRELAPGLHLRGIRDAGGRYCQEQDLCCRGRADDCALPYLGAICYCDLFCNRTVSDCCPDFWDFCLGVPPPFPPIQGCMHGGRIYPVLGTYWDNCNRCTCQENRQWQCDQEPCLVDPDMIKAINQGNYGWQAGNHSAFWGMTLDEGIRYRLGTIRPSSSVMNMHEIYTVLNPGEVLPTAFEASEKWPNLIHEPLDQGNCAGSWAFSTAAVASDRVSIHSLGHMTPVLSPQNLLSCDTHQQQGCRGGRLDGAWWFLRRRGVVSDHCYPFSGRERDEAGPAPPCMMHSRAMGRGKRQATAHCPNSYVNNNDIYQVTPVYRLGSNDKEIMKELMENGPVQALMEVHEDFFLYKGGIYSHTPVSLGRPERYRRHGTHSVKITGWGEETLPDGRTLKYWTAANSWGPAWGERGHFRIVRGVNECDIESFVLGVWGRVGMEDMGHH
notes: Expressed in LM2 or HEK293T cells; assayed in cell lysate mixed with concentrated culture media; also called Tiangl1-HA; not shown: human influenza hemagglutinin (HA) tag fused to the C-terminal
binding result [2]: no binding
